Results from US20130101684A1, “Compounds, Compositions, And Methods For Reducing Or Eliminating Bitter Taste” (Chromocell Corporation, priority 2010, published 2013).
Where two headings read alike, the source gives them in different places.

Columns and labels:
Type in all cases: in vivo, humans
[1] = system: bitter taste of KCl foodstuff slurries; experiment: Two-alternative forced choice (2AFC) sip and spit test of KCl turkey foodstuff slurries; conditions: turkey slurry with KCl 1.6%, 1% EtOH, 2AFC vs KCl slurry standard, dash = at none of the tested conc.; for minimal effective concentration: Homo sapiens
Experimental: Edible KCl food compositions (“KCl test foodstuff slurries”) were prepared as follows. Dehydrated, salt-free turkey powder was weighed and mixed with various amounts of KCl and/or NaCl and then solubilized with boiling water to create a homogenized solubilized turkey slurry. Varying amounts of the test compounds were dissolved in an amount of ethanol or water (depending on the solubility of the compound) to create a 5 mg/mL stock compound solution. An amount of this stock compound solution was then added to the turkey slurry. Enough EtOH is then added to the resulting stock compound/turkey slurry so that the slurry contains 1% EtOH. The slurry was again homogenized by boiling and mixing and allowed to cool to yield the final KCl test foodstuff slurry for taste testing. KCl foodstuff slurry standards were similarly prepared without any test compound. […] The effect of the test compounds on the perception of the bitter taste of KCl foodstuff slurries in humans was evaluated using a two-alternative-forced-choice “sip and spit” test as follows. In a blind taste test, panelists received two portions of turkey slurry—one portion being the KCl foodstuff slurry standard and the other being one of the KCl test foodstuff slurries (each prepared as described in Example 5). The panelists tasted each of the portions by sipping and spitting. Each sample was tested in 2-4 discrete taste test experiments. Panelists were asked to rinse with water, eat a cracker, and wait about 10 minutes between samples. In each case, the panelists were asked to compare the bitter taste of the two turkey samples to each other (i.e. panelists were asked to indicate which sample was less bitter).

[2] = system: bitter taste of potassium lactate foodstuffs; experiment: Two-alternative forced choice (2AFC) sip and spit test of potassium lactate turkey foodstuff slurries; conditions: turkey slurry with potassium lactate (KLac) 4.5%, 1% EtOH, 2AFC vs KLac slurry standard, dash = at none of the tested conc.; for minimal effective concentration: Homo sapiens
Experimental: In a blind taste test, panelists received two portions of turkey slurry—one portion being the KCl foodstuff slurry standard and the other being one of the KCl test foodstuff slurries (each prepared as described in Example 5). The panelists tasted each of the portions by sipping and spitting. Each sample was tested in 2-4 discrete taste test experiments. Panelists were asked to rinse with water, eat a cracker, and wait about 10 minutes between samples. In each case, the panelists were asked to compare the bitter taste of the two turkey samples to each other (i.e. panelists were asked to indicate which sample was less bitter). Edible potassium lactate food compositions (“potassium lactate test foodstuff slurries”) were prepared as follows, Dehydrated, salt-free turkey powder was weighed and mixed with various amounts of potassium lactate and/or sodium lactate and then solubilized with boiling water to create a homogenized solubilized turkey slurry. Varying amounts of the test compounds were dissolved in an amount of ethanol or water (depending on the solubility of the compound) to create a 5 mg/mL stock compound solution. An amount of this stock compound solution was then added to the turkey slurry. Enough EtOH is then added to the resulting stock compound/turkey slurry so that the final slurry contains 1% EtOH. The final slurry was again homogenized by boiling and mixing and allowed to cool to yield the final slurry for taste testing. Potassium lactate foodstuff slurry standards were similarly prepared without any test compound. […] The effect of the test compounds on the perception of the bitter taste of potassium lactate foodstuffs in humans was evaluated using the two-alter native-forced-choice “sip and spit” test described in Example 6.

[3] = system: bitter taste of an aqueous solution of potassium lactate; experiment: Sip and spit taste test of aqueous potassium lactate test solutions; conditions: aqueous potassium lactate (KLac) 41 g/L, 1% EtOH, human panel, dash = at none of the tested conc.
Experimental: A set of KCl solutions standards was developed and each standard solution was assigned a bitterness taste score of 0-15 (corresponding to aqueous KCl concentrations of 0 mM-120 mM). Panelists were trained to recognize these standards. In addition, before each day of testing, panelists were tested to see if they could determine differences in taste between the standard solutions, if a panelist was unable to recognize a change in KCl concentration, they were excluded from the panel for that day. In a blind taste test, panelists were asked to compare the bitter taste of a small quantity (e.g. 8 ml) of each of the KCl Test Solutions to the taste of a KCl solution standard, without swallowing (see, e.g., Table 1). Specifically, panelists were asked to rate the bitterness of each KCl Test Solution on a scale of 0-15 using the same scale developed for the KCl solution standards. Each sample was tested in 2-4 discrete taste test experiments. Panelists were asked to rinse with water, eat a cracker, and wait approximately 10 minutes between samples. Edible potassium lactate solution compositions (“potassium lactate test solutions”) were prepared by first dissolving varying amounts of the test compounds in an amount of ethanol or water (depending on the solubility of the compound) to create a 5 mg/mL stock compound solution. An amount of this stock compound solution is then added to an aqueous potassium lactate solution. Enough EtOH is then added to the resulting stock compound/potassium lactate solution so that the final potassium lactate test solution contains 1% EtOH. Potassium lactate solution standards were similarly prepared by dissolving various amounts of potassium lactate in water and ethanol without adding any test compound. […] The effect of the test compounds on the perception of the bitter taste of an aqueous solution of potassium lactate in humans was evaluated using the “sip and spit” test described in Example 2.

[4] = system: bitter taste of an aqueous solution of KCl; experiment: Sip and spit taste test of aqueous KCl test solutions, bitterness rated 0-15 against KCl solution standards; conditions: aqueous KCl 4.85 g/L, 1% EtOH, human panel, vs KCl solution standard, dash = at none of the tested conc.
Experimental: Edible KCl solution compositions (“KCl test solutions”) were prepared by first dissolving varying amounts of the test compounds in an amount of ethanol or water (depending on the solubility of the compound) to create a 5 mg/mL stock compound solution. An amount of this stock compound solution is then added to an aqueous KCl solution. Enough EtOH is then added to the resulting stock compound/KCl solution so that the final KCl test solution contains 1% EtOH. KCl solution standards were similarly prepared by dissolving various amounts of KCl in water and ethanol without adding any test compound. […] The effect of the test compounds on the perception of the bitter taste of an aqueous solution of KCl in humans was evaluated using a “sip and Spit” test as follows. A set of KCl solutions standards was developed and each standard solution was assigned a bitterness taste score of 0-15 (corresponding to aqueous KCl concentrations of 0 mM-120 mM). Panelists were trained to recognize these standards. In addition, before each day of testing, panelists were tested to see if they could determine differences in taste between the standard solutions, if a panelist was unable to recognize a change in KCl concentration, they were excluded from the panel for that day. In a blind taste test, panelists were asked to compare the bitter taste of a small quantity (e.g. 8 ml) of each of the KCl Test Solutions to the taste of a KCl solution standard, without swallowing (see, e.g., Table 1). Specifically, panelists were asked to rate the bitterness of each KCl Test Solution on a scale of 0-15 using the same scale developed for the KCl solution standards. Each sample was tested in 2-4 discrete taste test experiments. Panelists were asked to rinse with water, eat a cracker, and wait approximately 10 minutes between samples.

[5] = read-out: Conc. at Which At Least 50% of Panelist Discerned Decrease in Bitter Taste and p ≦ 0.1
[6] = read-out: Conc. Where Decrease in Bitter Taste Discerned and p ≦ 0.1
[7] = read-out: Conc. Where Decrease in Bitter Taste Was Discerned
[8] = read-out: Conc. at Which At Least 50% of Panelist Discerned Decrease in Bitter Taste

Compound | minimal effective concentration [1, 5] [µg/mL] | minimal effective concentration [2, 5] [µg/mL] | Conc. Where Decrease in Bitter Taste Discerned and p ≦ 0.1 [4] [ppm] | minimal effective concentration [4, 6] [µg/mL] | minimal effective concentration [4, 7] [µg/mL] | minimal effective concentration [2, 8] [µg/mL] | minimal effective concentration [3, 6] [µg/mL] | further results
COC(=O)c1ccccc1NC(=O)c1c(I)cnn1C [Compound 24] | 10 | 30 | – | – | – | – | – | –
Cc1ccc(NC(=O)CCOc2ccccc2)cc1Cl [Compound 53] | – | – | 25 | – | – | – | – | Conc. Where Decrease in Bitter Taste Discerned and p ≦ 0.1 [3]: 1 ppm; Conc. Where Decrease in Bitter Taste Was Discerned [3]: 1 ppm; Conc. Where Decrease in Bitter Taste Was Discerned [4]: 25 ppm; Conc. at Which At Least 50% of Panelist Discerned Decrease in Bitter Taste [1]: 30 ppm; Conc. at Which At Least 50% of Panelist Discerned Decrease in Bitter Taste and p ≦ 0.1 [1]: 30 ppm; Conc. at Which At Least 50% of Panelist Discerned Decrease in Bitter Taste [2]: 30 ppm
Cc1ccc(NC(=O)C2COc3ccccc3O2)cc1Cl (stereo not drawn) [Compound 56] | – | – | 1 | – | – | – | – | Conc. Where Decrease in Bitter Taste Discerned and p ≦ 0.1 [3]: 10 ppm; Conc. at Which At Least 50% of Panelist Discerned Decrease in Bitter Taste [2]: 1 ppm; Conc. at Which At Least 50% of Panelist Discerned Decrease in Bitter Taste and p ≦ 0.1 [2]: 1 ppm
CCC(=O)Nc1ccc(OC)c(Cl)c1 [Compound 51] | – | – | – | 15 | 15 | 10 | – | –
CCn1ncc(Br)c1C(=O)Nc1ccccc1C(=O)OC [Compound 23] | – | – | 40 | – | – | – | – | Conc. Where Decrease in Bitter Taste Was Discerned [4]: 40 ppm; Conc. at Which At Least 50% of Panelist Discerned Decrease in Bitter Taste and p ≦ 0.1 [2]: 1 ppm
CCn1cc(Br)c(C(=O)Nc2ccccc2C(=O)OC)n1 [Compound 25] | – | – | – | – | – | 1 | 10 | minimal effective concentration [3, 7]: 10 µg/mL
CCCC(=O)Nc1ccc(OC)c(Cl)c1 [Compound 49] | 1 | 30 | – | 30 | 30 | 30 | 30 | minimal effective concentration [3, 7]: 30 µg/mL; minimal effective concentration [1, 8]: 1 µg/mL
O=C(O)c1cccc2c1NC(c1cccc(Br)c1)C1CC=CC21 (stereo not drawn) [Compound 37] | – | 10 | – | 1 | 1 | – | – | –
CCOC(=O)c1ccccc1NC(=O)c1c(Cl)cnn1C [Compound 26] | 1 | – | – | – | – | 30 | 1 | –
COC(=O)c1cccc2c1NC(c1ccc(Cl)cc1Cl)C1CC=CC21 (stereo not drawn) [Compound 38] | – | – | – | 1 | 1 | 30 | – | –
